# US9938322B2, “β-hairpin peptidomimetics” (priority 2013, dated 2018)
# Where a SMILES comes first, the peptide text is derived from it. [ ]: non-standard residue; d: D form. Phe(4-NH2) = Nc1ccc(C[C@H](N)C(=O)O)cc1; Cha = N[C@@H](CC1CCCCC1)C(=O)O; Chg = N[C@H](C(=O)O)C1CCCCC1; Tle = CC(C)(C)[C@H](N)C(=O)O; dDab = NCC[C@@H](N)C(=O)O; Orn = NCCC[C@H](N)C(=O)O; Dab = NCC[C@H](N)C(=O)O; Nva = CCC[C@H](N)C(=O)O; Dap = NC[C@H](N)C(=O)O
# Tested on: human red blood cells (hRBC)
# Assay: Hemolysis of human red blood cells
# Assay type: cell-based
# Details: red cells of human, 1 h, 100
# Method in brief: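 Washed fresh human erythrocytes (20% v/v, about 0.9×10^9 cells/ml final) incubated with peptide at 100 μg/ml for 1 h at 37° C with shaking. Supernatant OD540 read; hemolysis expressed relative to 2.5% Triton X-100 (100%) and PBS with 0.001% acetic acid (0%).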
row,Compound,Hemolysis at 100 μg/ml
1,CCC[C@@H]1NC(=O)[C@H](CCN)NC(=O)[C@H](Cc2c[nH]c3ccccc23)NC(=O)[C@H](CCN)NC(=O)[C@@H](CCN)NC(=O)[C@H](CCCN)NC(=O)[C@H](CCN)NC(=O)[C@H](C(C)(C)C)NC(=O)[C@H](CO)NC(=O)[C@H](Cc2c[nH]c3ccccc23)NC(=O)[C@@H]2CCCN2C(=O)[C@H]2CCCN2C(=O)[C@H](CO)NC(=O)[C@H](C)NC1=O [compound 67] (cyclo(WS[Tle][Dab][Orn][dDab][Dab]W[Dab][Nva]AS[dP]P)),1%
2,C[C@@H]1NC(=O)[C@H](C(C)(C)C)NC(=O)[C@H](CCN)NC(=O)[C@H](Cc2c[nH]c3ccccc23)NC(=O)[C@H](CCN)NC(=O)[C@@H](CCN)NC(=O)[C@H](CCCN)NC(=O)[C@H](CCN)NC(=O)[C@H](C(C)(C)C)NC(=O)[C@H](CO)NC(=O)[C@H](Cc2c[nH]c3ccccc23)NC(=O)[C@@H]2CCCN2C(=O)[C@H]2CCCN2C(=O)[C@H](CO)NC1=O [compound 68] (cyclo(WS[Tle][Dab][Orn][dDab][Dab]W[Dab][Tle]AS[dP]P)),0%
3,C[C@@H]1NC(=O)[C@H](C2CCCCC2)NC(=O)[C@H](CCN)NC(=O)[C@H](Cc2c[nH]c3ccccc23)NC(=O)[C@H](CCN)NC(=O)[C@@H](CCN)NC(=O)[C@H](CCCN)NC(=O)[C@H](CCN)NC(=O)[C@H](C(C)(C)C)NC(=O)[C@H](CO)NC(=O)[C@H](Cc2ccc(O)cc2)NC(=O)[C@@H]2CCCN2C(=O)[C@H]2CCCN2C(=O)[C@H](CO)NC1=O [compound 69] (cyclo(YS[Tle][Dab][Orn][dDab][Dab]W[Dab][Chg]AS[dP]P)),7%
4,C[C@@H]1NC(=O)[C@H](CC2CCCCC2)NC(=O)[C@H](CCN)NC(=O)[C@H](Cc2c[nH]c3ccccc23)NC(=O)[C@H](CCN)NC(=O)[C@@H](CCN)NC(=O)[C@H](CCCN)NC(=O)[C@H](CCN)NC(=O)[C@H](Cc2ccc(O)cc2)NC(=O)[C@H](CO)NC(=O)[C@H](Cc2c[nH]c3ccccc23)NC(=O)[C@@H]2CCCN2C(=O)[C@H]2CCCN2C(=O)[C@H](CO)NC1=O [compound 70] (cyclo(WSY[Dab][Orn][dDab][Dab]W[Dab][Cha]AS[dP]P)),5%
5,CCC[C@@H]1NC(=O)[C@H](CCN)NC(=O)[C@H](Cc2c[nH]c3ccccc23)NC(=O)[C@H](CCN)NC(=O)[C@@H](CCN)NC(=O)[C@H](CCCN)NC(=O)[C@H](CCN)NC(=O)[C@H](Cc2ccc(O)cc2)NC(=O)[C@H](CO)NC(=O)[C@H](Cc2c[nH]c3ccccc23)NC(=O)[C@@H]2CCCN2C(=O)[C@H]2CCCN2C(=O)[C@H](CO)NC(=O)[C@H](C)NC1=O [compound 71] (cyclo(WSY[Dab][Orn][dDab][Dab]W[Dab][Nva]AS[dP]P)),0%
6,CC(C)[C@@H]1NC(=O)[C@H](CCN)NC(=O)[C@H](Cc2c[nH]c3ccccc23)NC(=O)[C@H](CCN)NC(=O)[C@@H](CCN)NC(=O)[C@H](CCCN)NC(=O)[C@H](CCN)NC(=O)[C@H](Cc2ccc(O)cc2)NC(=O)[C@H](CO)NC(=O)[C@H](Cc2c[nH]c3ccccc23)NC(=O)[C@@H]2CCCN2C(=O)[C@H]2CCCN2C(=O)[C@H](CO)NC(=O)[C@H](C)NC1=O [compound 72] (cyclo(WSY[Dab][Orn][dDab][Dab]W[Dab]VAS[dP]P)),0%
7,C[C@@H]1NC(=O)[C@H](C2CCCCC2)NC(=O)[C@H](CCN)NC(=O)[C@H](Cc2c[nH]c3ccccc23)NC(=O)[C@H](CCN)NC(=O)[C@@H](CCN)NC(=O)[C@H](CCCN)NC(=O)[C@H](CCN)NC(=O)[C@H](Cc2ccc(O)cc2)NC(=O)[C@H](CO)NC(=O)[C@H](Cc2ccc(O)cc2)NC(=O)[C@@H]2CCCN2C(=O)[C@H]2CCCN2C(=O)[C@H](CO)NC1=O [compound 73] (cyclo(YSY[Dab][Orn][dDab][Dab]W[Dab][Chg]AS[dP]P)),0%
8,C[C@@H]1NC(=O)[C@H](C(C)(C)C)NC(=O)[C@H](CCN)NC(=O)[C@H](Cc2c[nH]c3ccccc23)NC(=O)[C@H](CCN)NC(=O)[C@H](CCN)NC(=O)[C@H](CCCN)NC(=O)[C@H](CCN)NC(=O)[C@H](Cc2ccc(O)cc2)NC(=O)[C@H](CO)NC(=O)[C@H](Cc2c[nH]c3ccccc23)NC(=O)[C@@H]2CCCN2C(=O)[C@H]2CCCN2C(=O)[C@H](CO)NC1=O [compound 74] (cyclo(WSY[Dab][Orn][Dab][Dab]W[Dab][Tle]AS[dP]P)),0%
9,C[C@@H]1NC(=O)[C@H](Cc2c[nH]c3ccccc23)NC(=O)[C@@H]2CCCN2C(=O)[C@H]2CCCN2C(=O)[C@H](CO)NC(=O)[C@H](C)NC(=O)[C@H](C(C)(C)C)NC(=O)[C@H](CCN)NC(=O)[C@H](Cc2c[nH]c3ccccc23)NC(=O)[C@H](CCN)NC(=O)[C@@H](CCN)NC(=O)[C@H](CCCN)NC(=O)[C@H](CCN)NC(=O)[C@H](Cc2c[nH]c3ccccc23)NC1=O [compound 75] (cyclo(WAW[Dab][Orn][dDab][Dab]W[Dab][Tle]AS[dP]P)),1%
10,C[C@@H]1NC(=O)[C@H](CC2CCCCC2)NC(=O)[C@H](CCN)NC(=O)[C@H](Cc2c[nH]c3ccccc23)NC(=O)[C@H](CCN)NC(=O)[C@@H](CCN)NC(=O)[C@H](CCCCN)NC(=O)[C@H](CCN)NC(=O)[C@H](Cc2ccc(O)cc2)NC(=O)[C@H](C)NC(=O)[C@H](Cc2c[nH]c3ccccc23)NC(=O)[C@@H]2CCCN2C(=O)[C@H]2CCCN2C(=O)[C@H](CO)NC1=O [compound 76] (cyclo(WAY[Dab]K[dDab][Dab]W[Dab][Cha]AS[dP]P)),2%
11,C[C@@H]1NC(=O)[C@H](Cc2c[nH]c3ccccc23)NC(=O)[C@@H]2CCCN2C(=O)[C@H]2CCCN2C(=O)[C@H](CO)NC(=O)[C@H](C)NC(=O)[C@H](C2CCCCC2)NC(=O)[C@H](CCN)NC(=O)[C@H](Cc2c[nH]c3ccccc23)NC(=O)[C@H](CCN)NC(=O)[C@@H](CCN)NC(=O)[C@H](CCCN)NC(=O)[C@H](CCN)NC(=O)[C@H](Cc2ccc(O)cc2)NC1=O [compound 77] (cyclo(WAY[Dab][Orn][dDab][Dab]W[Dab][Chg]AS[dP]P)),1%
12,C[C@@H]1NC(=O)[C@H](Cc2c[nH]c3ccccc23)NC(=O)[C@@H]2CCCN2C(=O)[C@H]2CCCN2C(=O)[C@H](CO)NC(=O)[C@H](C)NC(=O)[C@H](C(C)(C)C)NC(=O)[C@H](CCN)NC(=O)[C@H](Cc2c[nH]c3ccccc23)NC(=O)[C@H](CCN)NC(=O)[C@@H](CCN)NC(=O)[C@H](CCCCN)NC(=O)[C@H](CCN)NC(=O)[C@H](Cc2ccc(O)cc2)NC1=O [compound 78] (cyclo(WAY[Dab]K[dDab][Dab]W[Dab][Tle]AS[dP]P)),1%
13,C[C@@H]1NC(=O)[C@H](C(C)(C)C)NC(=O)[C@H](CCN)NC(=O)[C@H](Cc2c[nH]c3ccccc23)NC(=O)[C@H](CCN)NC(=O)[C@@H](CCN)NC(=O)[C@H](CCCN)NC(=O)[C@H](CCN)NC(=O)[C@H](Cc2c[nH]c3ccccc23)NC(=O)[C@H](CN)NC(=O)[C@H](Cc2c[nH]c3ccccc23)NC(=O)[C@@H]2CCCN2C(=O)[C@H]2CCCN2C(=O)[C@H](CO)NC1=O [compound 79] (cyclo(W[Dap]W[Dab][Orn][dDab][Dab]W[Dab][Tle]AS[dP]P)),1%
14,CCC[C@@H]1NC(=O)[C@@H]2CCCN2C(=O)[C@H]2CCCN2C(=O)[C@H](CO)NC(=O)[C@H](C)NC(=O)[C@H](C(C)(C)C)NC(=O)[C@H](CCN)NC(=O)[C@H](Cc2c[nH]c3ccccc23)NC(=O)[C@H](CCN)NC(=O)[C@@H](CCN)NC(=O)[C@H](CCCN)NC(=O)[C@H](CCN)NC(=O)[C@H](Cc2c[nH]c3ccccc23)NC(=O)[C@H](CO)NC1=O [compound 80] (cyclo([Nva]SW[Dab][Orn][dDab][Dab]W[Dab][Tle]AS[dP]P)),1%
15,CC[C@H](C)[C@@H]1NC(=O)[C@H](CCN)NC(=O)[C@H](Cc2c[nH]c3ccccc23)NC(=O)[C@H](CCN)NC(=O)[C@@H](CCN)NC(=O)[C@H](CCCN)NC(=O)[C@H](CCN)NC(=O)[C@H](Cc2ccc(O)cc2)NC(=O)[C@H](CO)NC(=O)[C@H]([C@@H](C)CC)NC(=O)[C@@H]2CCCN2C(=O)[C@H]2CCCN2C(=O)[C@H](CO)NC(=O)[C@H](C)NC1=O [compound 81] (cyclo(ISY[Dab][Orn][dDab][Dab]W[Dab]IAS[dP]P)),1%
16,CC[C@H](C)[C@@H]1NC(=O)[C@@H]2CCCN2C(=O)[C@H]2CCCN2C(=O)[C@H](CO)NC(=O)[C@H](C)NC(=O)[C@H](C(C)(C)C)NC(=O)[C@H](CCN)NC(=O)[C@H](Cc2c[nH]c3ccccc23)NC(=O)[C@H](CCN)NC(=O)[C@@H](CCN)NC(=O)[C@H](CCCCN)NC(=O)[C@H](CCN)NC(=O)[C@H](Cc2ccc(O)cc2)NC(=O)[C@H](CO)NC1=O [compound 82] (cyclo(ISY[Dab]K[dDab][Dab]W[Dab][Tle]AS[dP]P)),1%
17,CC[C@H](C)[C@@H]1NC(=O)[C@@H]2CCCN2C(=O)[C@H]2CCCN2C(=O)[C@H](CO)NC(=O)[C@H](C)NC(=O)[C@H](C(C)(C)C)NC(=O)[C@H](CCN)NC(=O)[C@H](Cc2c[nH]c3ccccc23)NC(=O)[C@H](CCN)NC(=O)[C@@H](CCN)NC(=O)[C@H](CCCN)NC(=O)[C@H](CCN)NC(=O)[C@H](Cc2ccc(N)cc2)NC(=O)[C@H](CO)NC1=O [compound 83] (cyclo(IS[Phe(4-NH2)][Dab][Orn][dDab][Dab]W[Dab][Tle]AS[dP]P)),0.5%
18,CC[C@H](C)[C@@H]1NC(=O)[C@@H]2CCCN2C(=O)[C@H]2CCCN2C(=O)[C@H](CO)NC(=O)[C@H](C)NC(=O)[C@H](C(C)(C)C)NC(=O)[C@H](CCN)NC(=O)[C@H](Cc2c[nH]c3ccccc23)NC(=O)[C@H](CCN)NC(=O)[C@@H](CCN)NC(=O)[C@H](CCCN)NC(=O)[C@H](CCN)NC(=O)[C@H](Cc2ccc(O)cc2)NC(=O)[C@H]([C@@H](C)O)NC1=O [compound 84] (cyclo(ITY[Dab][Orn][dDab][Dab]W[Dab][Tle]AS[dP]P)),0%
19,CC[C@H](C)[C@@H]1NC(=O)[C@@H]2CCCN2C(=O)[C@H]2CCCN2C(=O)[C@H](CO)NC(=O)[C@H](C)NC(=O)[C@H](C(C)(C)C)NC(=O)[C@H](CCN)NC(=O)[C@H](Cc2c[nH]c3ccccc23)NC(=O)[C@H](CCN)NC(=O)[C@@H](CCN)NC(=O)[C@H](CCCN)NC(=O)[C@H](CCN)NC(=O)[C@H](Cc2ccc(O)cc2)NC(=O)[C@H](CC(N)=O)NC1=O [compound 85] (cyclo(INY[Dab][Orn][dDab][Dab]W[Dab][Tle]AS[dP]P)),0%
